Source: US20140349948A1, “Treatment of Chronic Constipation” (Forest Laboratories Holdings Limited, priority 2009, published 2014)
Marks after values point to notes of the source that are not given here. Residues, ends and D or L forms follow the SMILES beside them.

Columns and labels:
[1] = system: patients with chronic constipation; test: Chronic Constipation Trial 2, 12-week treatment period; assay type: in vivo, human; settings: for Straining, Week 1 Mean Change from Baseline / Abdominal discomfort, Week 1 Mean Change from Baseline / Bloating, Week 1 Mean Change from Baseline / Constipation severity, Week 1 Mean Change from Baseline: 5-point scale: 1 = none; for Straining, Week 1 Mean Change from Baseline: 5 = an extreme amount; for Abdominal discomfort, Week 1 Mean Change from Baseline / Bloating, Week 1 Mean Change from Baseline / Constipation severity, Week 1 Mean Change from Baseline: 5 = very severe; for Stool Consistency, Week 1 Mean Change from Baseline: 7-point scale (BSFS)
Protocol: Linaclotide Capsules from Example 4 were administered in multicenter, randomized, double-blind, placebo-controlled trials.
Trial 1 was conducted in 630 patients meeting modified Rome II criteria for chronic constipation. The trial included a two-week pretreatment baseline period and a 12-week treatment period. A diagram of the study design for Trial 2 is given in FIG. 1, which is substantially similar to Trial 1 except for the addition of a Randomized Withdrawal period in Trial 2 as described below.
The Treatment Period began with randomization and lasted for 12 weeks. Patients were randomized to treatment with 133 μg linaclotide, 266 μg linaclotide, or placebo (1:1:1), taken once daily in the morning. Patients continued to provide their daily assessments such as their daily bowel habit assessments and daily patient symptom severity assessments.
Trial 2 was conducted in 642 patients and was identical to Trial 1 except that Trial 2 also included a four-week Randomized Withdrawal Period, defined below. During the two-week pretreatment (baseline) period, 68 percent of patients in Trial 2 had no CSBMs.

[2] = Systemic linaclotide levels after oral administration; assay type: in vivo; settings: after oral administration at therapeutic dose levels
From the text: Linaclotide is a peptide GC-C agonist that is orally administered and currently in clinical trials for treatment of irritable bowel syndrome with constipation (IBS-c) and CC.

[3] = Trial 2, 133 μg (p≦0.0001) and 266 μg (p≦0.0001)

SMILES: C[C@@H]1NC(=O)[C@@H]2CCCN2C(=O)[C@H](CC(N)=O)NC(=O)[C@@H]2CSSC[C@H](N)C(=O)N[C@H]3CSSC[C@H](NC1=O)C(=O)N[C@@H]([C@@H](C)O)C(=O)NCC(=O)N[C@H](C(=O)N[C@@H](Cc1ccc(O)cc1)C(=O)O)CSSC[C@H](NC(=O)[C@H](Cc1ccc(O)cc1)NC(=O)[C@H](CCC(=O)O)NC3=O)C(=O)N2 [Linaclotide, Cys1 Cys2 Glu3 Tyr4 Cys5 Cys6 Asn7 Pro8 Ala9 Cys10 Thr11 Gly12 Cys13 Tyr14] (HELM PEPTIDE1{C.C.E.Y.C.C.N.P.A.C.T.G.C.Y}$PEPTIDE1,PEPTIDE1,1:R3-6:R3|PEPTIDE1,PEPTIDE1,2:R3-10:R3|PEPTIDE1,PEPTIDE1,5:R3-13:R3$$$V2.0)
- CSBM rate, Week 1 Mean Change from Baseline ([1]; 133 μg, Trial 2 (n = 217)): 1.89***
- SBM rate, Week 1 Mean Change from Baseline ([1]; 133 μg, Trial 2 (n = 217)): 3.59***
- Straining, Week 1 Mean Change from Baseline ([1]; 133 μg, Trial 2 (n = 217)): −0.99***
- Abdominal discomfort, Week 1 Mean Change from Baseline ([1]; 133 μg, Trial 2 (n = 217)): −0.23
- Bloating, Week 1 Mean Change from Baseline ([1]; 133 μg, Trial 2 (n = 217)): −0.32**
- Constipation severity, Week 1 Mean Change from Baseline ([1]; 133 μg, Trial 2 (n = 217)): −0.80***
- Stool Consistency, Week 1 Mean Change from Baseline ([1]; 133 μg, Trial 2 (n = 217)): 1.75***
- CSBM rate, Week 1 Mean Change from Baseline ([1]; 266 μg, Trial 2 (n = 216)): 2.02***
- SBM rate, Week 1 Mean Change from Baseline ([1]; 266 μg, Trial 2 (n = 216)): 3.61***
- Straining, Week 1 Mean Change from Baseline ([1]; 266 μg, Trial 2 (n = 216)): −1.06***
- Abdominal discomfort, Week 1 Mean Change from Baseline ([1]; 266 μg, Trial 2 (n = 216)): −0.21
- Bloating, Week 1 Mean Change from Baseline ([1]; 266 μg, Trial 2 (n = 216)): −0.27*
- Constipation severity, Week 1 Mean Change from Baseline ([1]; 266 μg, Trial 2 (n = 216)): −0.76***
- Stool Consistency, Week 1 Mean Change from Baseline ([1]; 266 μg, Trial 2 (n = 216)): 1.81***
- 12-week CSBM overall responder rate ([1]; Trial 2, 133 μg): 21.2%
- increase in average weekly CSBMs from baseline ([1]; Trial 2, 133 μg): 1.9
- increase in average weekly SBMs from baseline ([1]; Trial 2, 133 μg): 3.0
- numerical increase of 12-week CSBM overall responder rate as compared to placebo ([1]; Trial 2, 133 μg): 6.3 fold
- patients reporting at least one CSBM within 24 hours of treatment ([1]; Trial 2, 133 μg): 33.2%
- patients reporting at least one SBM within 24 hours of treatment ([1]; Trial 2, 133 μg): 70.0%
- patients who experienced weekly CSBMs in at least nine out of 12 weeks ([1]; Trial 2, 133 μg): 21.7%
- patients with increase of ≧1 from baseline in weekly CSBMs in at least nine out of 12 weeks ([1]; Trial 2, 133 μg): 39.2%
- patients with increase of ≧1 from baseline in weekly CSBMs in at least six out of 12 weeks ([1]; Trial 2, 133 μg): 56.7%
- 12-week CSBM overall responder rate ([1]; Trial 2, 266 μg): 19.4%
- increase in average weekly CSBMs from baseline ([1]; Trial 2, 266 μg): 2.0
- increase in average weekly SBMs from baseline ([1]; Trial 2, 266 μg): 3.0
- numerical increase of 12-week CSBM overall responder rate as compared to placebo ([1]; Trial 2, 266 μg): 5.8 fold
- patients reporting at least one CSBM within 24 hours of treatment ([1]; Trial 2, 266 μg): 26.9%
- patients reporting at least one SBM within 24 hours of treatment ([1]; Trial 2, 266 μg): 54.6%
- patients who experienced weekly CSBMs in at least nine out of 12 weeks ([1]; Trial 2, 266 μg): 19.4%
- patients with increase of ≧1 from baseline in weekly CSBMs in at least nine out of 12 weeks ([1]; Trial 2, 266 μg): 37.0%
- patients with increase of ≧1 from baseline in weekly CSBMs in at least six out of 12 weeks ([1]; Trial 2, 266 μg): 50.5%
- PAC-QOL overall assessments, 12 week overall mean change versus placebo [1, 3]: statistically significant improvements
- overall constipation severity score, 12 week overall mean change versus placebo [1, 3]: statistically significant improvements
- severity of straining score, 12 week overall mean change versus placebo [1, 3]: statistically significant improvements
- stool consistency score, 12 week overall mean change versus placebo [1, 3]: statistically significant improvements
- bloating score, 12 week overall mean change versus placebo ([1]; Trial 2, 133 μg (p≦0.0001) and 266 μg (p≦0.01)): statistically significant improvements
- abdominal discomfort score, 12 week overall mean change versus placebo ([1]; Trial 2, 133 μg (p≦0.001) and 266 μg (p≦0.01)): statistically significant improvements
- abdominal discomfort in week 2 ([1]; study 2, week 2 (p<0.01)): Statistically significant improvement
- levels seen systemically [2]: no detectable levels
